pIC50: −log10 of the molar value.

This note sets out measurements from patent US9102678B2, “Compounds and methods for inhibiting mitotic progression” (Millennium Pharmaceuticals, Inc., priority 2004, dated 2015).

T1 sequence (P97477 whole entry): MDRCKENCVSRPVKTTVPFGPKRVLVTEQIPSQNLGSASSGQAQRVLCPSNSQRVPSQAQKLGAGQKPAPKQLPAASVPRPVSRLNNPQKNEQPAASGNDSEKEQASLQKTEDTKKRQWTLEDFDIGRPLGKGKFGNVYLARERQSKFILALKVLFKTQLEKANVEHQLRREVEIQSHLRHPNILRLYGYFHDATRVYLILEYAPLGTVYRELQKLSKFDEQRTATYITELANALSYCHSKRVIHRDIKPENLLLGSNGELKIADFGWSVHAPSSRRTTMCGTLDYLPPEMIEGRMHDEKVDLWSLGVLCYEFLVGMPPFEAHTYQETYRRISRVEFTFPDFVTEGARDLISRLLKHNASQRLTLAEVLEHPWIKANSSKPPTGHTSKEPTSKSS

This assay has as its target T1, recombinant murine Aurora A enzyme (Mus musculus, UniProt P97477).
T1 construct: hexahistidine (His6) (N); made in house; host or cells: insect cells, baculovirus (Bac-to-Bac, Invitrogen)
The assay can be described thus: Aurora A DELFIA Kinase Assay. In kind it is biochemical. Particulars: mouse Aurora A, 250 μM ATP; threshold less than or equal to 100 nM; read-out: IC50.
A word on the pIC50: it is the IC50 on a negative log10 scale, so that one unit is a factor of ten. As to `CNC1CN(C(=O)c2ccc(Nc3ncc4c(n3)-c3ccc(Cl)cc3C(c3c(F)cccc3F)=NC4)cc2)C1` [Compound I-234, 9-chloro-7-(2,6-difluorophenyl)-N-(4-{[3-(methylamino)azetidin-1-yl]carbonyl}phenyl)-5H-pyrimido[5,4-d][2]benzazepin-2-amine], the pIC50 is no less than 7.00. Regarding `O=C(O)c1coc(Nc2ncc3c(n2)-c2ccc(Cl)cc2C(c2c(F)cccc2F)=NC3)n1` [Compound I-368, 2-{[9-chloro-7-(2,6-difluorophenyl)-5H-pyrimido[5,4-d][2]benzazepin-2-yl]amino}-1,3-oxazole-4-carboxylic acid], the pIC50 is no less than 7.00. The figure for `CNCCN(C)C(=O)c1cc(Nc2ncc3c(n2)-c2ccc(Cl)cc2C(c2c(F)cccc2F)=NC3)ccc1Cl` [Compound I-283, 2-chloro-5-{[9-chloro-7-(2,6-difluorophenyl)-5H-pyrimido[5,4-d][2]benzazepin-2-yl]amino}-N-methyl-N-[2-(methylamino)ethyl]benzamide] is no less than 7.00. The figure for `CNCCNC(=O)c1ccc(Nc2ncc3c(n2)-c2ccc(Cl)cc2C(c2ccccc2F)=NC3)cc1` [Compound I-1, 4-[9-Chloro-7-(2-fluoro-phenyl)-5H-benzo[c]pyrimido[4,5-e]azepin-2-ylamino]-N-(2-methylamino-ethyl)-benzamide] is no less than 7.00; for `COc1cccc(F)c1C1=NCc2cnc(Nc3ccc(C(=O)N(C)CCN)cc3)nc2-c2ccc(Cl)cc21` [Compound I-265, N-(2-aminoethyl)-4-{[9-chloro-7-(2-fluoro-6-methoxyphenyl)-5H-pyrimido[5,4-d][2]benzazepin-2-yl]amino}-N-methylbenzamide] it is no less than 7.00; for `COc1ccccc1C1=NCc2cnc(Nc3ccc(C(=O)N4CC(C)NC(C)C4)cc3)nc2-c2ccc(Cl)cc21` (centres unmarked) [Compound I-330] it is no less than 7.00. Regarding `C[C@@H]1CN(C(=O)c2csc(Nc3ncc4c(n3)-c3ccc(Cl)cc3C(c3c(F)cccc3F)=NC4)n2)CCN1` [Compound I-365, 9-chloro-7-(2,6-difluorophenyl)-N-(4-{[(3R)-3-methylpiperazin-1-yl]carbony}-1,3-thiazol-2-yl)-5H-pyrimido[5,4-d][2]benzazepin-2-amine], the pIC50 was no less than 7.00.

Take `O=C(NCCc1c[nH]cn1)c1ccc(Nc2ncc3c(n2)-c2ccc(Cl)cc2C(c2ccccc2F)=NC3)cc1` [Compound I-147, 4-[9-Chloro-7-(2-fluoro-phenyl)-5H-benzo[c]pyrimido[4,5-e]azepin-2-ylamino]-N-[2-(1H-imidazol-4-yl)-ethyl]-benzamide]: the pIC50 is no less than 7.00.

As to `O=C(c1ccc(Nc2ncc3c(n2)-c2ccc(Cl)cc2C(c2ccccc2F)=NC3)cc1)N(CCO)CCO` [Compound I-27, 4-[9-Chloro-7-(2-fluoro-phenyl)-5H-benzo[c]pyrimido[4,5-e]azepin-2-ylamino]-N,N-bis-(2-hydroxy-ethyl)-benzamide], the pIC50 is no less than 7.00. In the case of `CN(C)CC1CN(C(=O)c2ccc(Nc3ncc4c(n3)-c3ccc(Cl)cc3C(c3ccccc3F)=NC4)cc2)C1` [Compound I-193, {4-[9-Chloro-7-(2-fluoro-phenyl)-5H-benzo[c]pyrimido[4,5-e]azepin-2-ylamino]-phenyl}-(3-dimethylaminomethyl-azetidin-1-yl)-methanone] it was no less than 7.00; in that of `CN(C)C1CCN(C(=O)c2cccc(Nc3ncc4c(n3)-c3ccc(Cl)cc3C(c3c(F)cccc3F)=NC4)c2)CC1` [Compound I-205, 9-chloro-7-(2,6-difluorophenyl)-N-(3-{[4-(dimethylamino)piperidin-1-yl]carbonyl}phenyl)-5H-pyrimido[5,4-d][2]benzazepin-2-amine], no less than 7.00. The figure for `COc1cccc(F)c1C1=NCc2cnc(Nc3ccc(C(=O)N4CC(C)NC(C)C4)cc3)nc2-c2ccc(Cl)cc21` (centres unmarked) [Compound I-177, 9-Chloro-N-{4-[(3,5-dimethylpiperazin-1-yl)carbonyl]phenyl}-7-(2-fluoro-6-methoxyphenyl)-5H-pyrimido[5,4-d][2]benzazepin-2-amine] is no less than 7.00. The figure for `CC1CN(C(=O)c2ccc(Nc3ncc4c(n3)-c3ccc(Cl)cc3C(c3ccc(F)cc3F)=NC4)cc2)CC(C)N1` (centres unmarked) [Compound I-321, 9-chloro-7-(2,4-difluorophenyl)-N-{4-[(3,5-dimethylpiperazin-1-yl)carbonyl]phenyl}-5H-pyrimido[5,4-d][2]benzazepin-2-amine] is no less than 7.00. Turning to `CNC(=O)C1CN(C(=O)c2ccc(Nc3ncc4c(n3)-c3ccc(Cl)cc3C(c3c(F)cccc3F)=NC4)cc2)CCN1` (centres unmarked) [Compound I-310, 4-(4-{[9-chloro-7-(2,6-difluorophenyl)-5H-pyrimido[5,4-d][2]benzazepin-2-yl]amino}benzoyl)-N-methylpiperazine-2-carboxamide], the pIC50 is no less than 7.00. In the case of `CCCN(CCC)CCN1CCN(C(=O)c2ccc(Nc3ncc4c(n3)-c3ccc(Cl)cc3C(c3ccccc3F)=NC4)cc2)CC1` [Compound I-187, {4-[9-Chloro-7-(2-fluoro-phenyl)-5H-benzo[c]pyrimido[4,5-e]azepin-2-ylamino]-phenyl}-[4-(2-dipropylamino-ethyl)-piperazin-1-yl]-methanone] it was no less than 7.00; in that of `CN1CCN(CCCNC(=O)Cc2cccc(Nc3ncc4c(n3)-c3ccc(Cl)cc3C(c3ccccc3F)=NC4)c2)CC1` [Compound I-25, 2-{3-[9-Chloro-7-(2-fluoro-phenyl)-5H-benzo[c]pyrimido[4,5-e]azepin-2-ylamino]-phenyl}-N-[3-(4-methyl-piperazin-1-yl)-propyl]-acetamide], no less than 7.00. The figure for `CC1CN(C(=O)c2ccc(Nc3ncc4c(n3)-c3ccc(Cl)cc3C(c3ccccc3F)=NC4)cc2Cl)CCN1` (centres unmarked) [Compound I-214, 9-chloro-N-{3-chloro-4-[(3-methylpiperazin-1-yl)carbonyl]phenyl}-7-(2-fluorophenyl)-5H-pyrimido[5,4-d][2]benzazepin-2-amine] is no less than 7.00; for `C[C@H]1CN(C(=O)c2ccc(Nc3ncc4c(n3)-c3ccc(Cl)cc3C(c3c(F)cccc3F)=NC4)cc2)CCN1` [Compound I-191, {4-[9-Chloro-7-(2,6-difluoro-phenyl)-5H-benzo[c]pyrimido[4,5-e]azepin-2-ylamino]-phenyl}-(3(S)-methyl-piperazin-1-yl)-methanone] it is no less than 7.00. The figure for `CN(C)C1CN(C(=O)c2ccc(Nc3ncc4c(n3)-c3ccc(Cl)cc3C(c3c(F)cccc3F)=NC4)cc2)C1` [Compound I-180, 9-Chloro-7-(2,6-difluorophenyl)-N-(4-{[3-(dimethylamino)azetidin-1-yl]carbonyl}phenyl)-5H-pyrimido[5,4-d][2]benzazepin-2-amine] is no less than 7.00; for `CCOC(=O)C1CN=C(c2ccc(Nc3ncc4c(n3)-c3ccc(Cl)cc3C(c3c(F)cccc3F)=NC4)cc2)N1` (centres unmarked) [Compound I-314, ethyl 2-(4-{[9-chloro-7-(2,6-difluorophenyl)-5H-pyrimido[5,4-d][2]benzazepin-2-yl]amino}phenyl)-4,5-dihydro-1H-imidazole-5-carboxylate] it is no less than 7.00.

Turning to `NCC#Cc1cccc(Nc2ncc3c(n2)-c2ccc(Cl)cc2C(c2c(F)cccc2F)=NC3)c1` [Compound I-338, N-[3-(3-aminoprop-1-yn-1-yl)phenyl]-9-chloro-7-(2,6-difluorophenyl)-5H-pyrimido[5,4-d][2]benzazepin-2-amine], the pIC50 is no less than 7.00. In the case of `CC1CN(C(=O)c2cccc(Nc3ncc4c(n3)-c3ccc(Cl)cc3C(c3c(F)cccc3F)=NC4)c2)CC(C)N1` (centres unmarked) [Compound I-222, 9-chloro-7-(2,6-difluorophenyl)-N-{3-[(3,5-dimethylpiperazin-1-yl)carbonyl]phenyl}-5H-pyrimido[5,4-d][2]benzazepin-2-amine] it was no less than 7.00. Take `Cc1ccc2c(c1)C(c1ccccc1F)=NCc1cnc(Nc3ccc(C(=O)O)cc3)nc1-2` [Compound I-58, 4-[7-(2-Fluoro-phenyl)-9-methyl-5H-benzo[c]pyrimido[4,5-e]azepin-2-ylamino]-benzoic acid]: the pIC50 was no less than 7.00. In the case of `CNC1CN(C(=O)c2ccc(Nc3ncc4c(n3)-c3ccc(Cl)cc3C(c3ccccc3C(F)(F)F)=NC4)cc2)C1` [Compound I-297, 9-chloro-N-(4-{[3-(methylamino)azetidin-1-yl]carbonyl}phenyl)-7-[2-(trifluoromethyl)phenyl]-5H-pyrimido[5,4-d][2]benzazepin-2-amine] it was no less than 7.00; in that of `O=C(c1ccc(Nc2ncc3c(n2)-c2ccc(Cl)cc2C(c2ccccc2F)=NC3)cc1)N1CCN(CCN2CCCC2)CC1` [Compound I-171, 9-Chloro-7-(2-fluorophenyl)-N-(4-{[4-(2-pyrrolidin-1-ylethyl)piperazin-1-yl]carbonyl}phenyl)-5H-pyrimido[5,4-d][2]benzazepin-2-amine], no less than 7.00; in that of `CC1CN(C(=O)c2ccc(Nc3ncc4c(n3)-c3ccc(Cl)cc3C(c3ccccc3F)=NC4)cc2)CC(C)N1` (centres unmarked) [Compound I-111, {4-[9-Chloro-7-(2-fluoro-phenyl)-5H-benzo[c]pyrimido[4,5-e]azepin-2-ylamino]-phenyl}-(3,5-dimethyl-piperazin-1-yl)-methanone], no less than 7.00. The figure for `CN(C)C1CCN(C(=N)NC(=O)c2ccc(Nc3ncc4c(n3)-c3ccc(Cl)cc3C(c3c(F)cccc3F)=NC4)cc2)CC1` [Compound I-223, 4-{[9-chloro-7-(2,6-difluorophenyl)-5H-pyrimido[5,4-d][2]benzazepin-2-yl]amino}-N-[[4-(dimethylamino)piperidin-1-yl](imino)methyl]benzamide] is no less than 7.00; for `CNC(=O)c1csc(Nc2ncc3c(n2)-c2ccc(Cl)cc2C(c2c(F)cccc2F)=NC3)n1` [Compound I-355, 2-{[9-chloro-7-(2,6-difluorophenyl)-5H-pyrimido[5,4-d][2]benzazepin-2-yl]amino}-N-methyl-1,3-thiazole-4-carboxamide] it is no less than 7.00; for `CC1CN(C(=O)c2ccc(Nc3ncc4c(n3)-c3ccc(Cl)cc3C(c3c(F)cccc3F)=NC4)cc2)CC(C)N1` (centres unmarked) [Compound I-175, 9-Chloro-7-(2,6-difluorophenyl)-N-{4-[(3,5-dimethylpiperazin-1-yl)carbonyl]phenyl}-5H-pyrimido[5,4-d][2]benzazepin-2-amine] it is no less than 7.00.
